Results from BigSolDB 2.1.

N[C@H](Cc1c[nH]c2ccccc12)C(=O)O
solubility (mole fraction)
Conditions	in DMF	in ethanol	in isopropanol	in methanol	in water
283.15 K	0.00714	9.34e-05	1.29e-05	0.000179	0.00146
288.15 K	0.00749	0.000112	1.57e-05	0.000217	0.00159
293.15 K	0.00793	0.000135	1.9e-05	0.000261	0.00175
298.15 K	0.00834	0.000165	2.26e-05	0.000303	0.00192
303.15 K	0.00872	0.000202	2.64e-05	0.000358	0.00209
308.15 K	0.00912	0.000243	3.09e-05	0.000421	0.00227
313.15 K	0.00954	0.00029	3.62e-05	0.000489	0.00245
318.15 K	0.01	0.000348	4.16e-05	0.000575	0.00267
323.15 K	0.0104	0.00041	4.78e-05	0.000671	0.00288
328.15 K	0.0108	0.000484	5.44e-05	0.000779	0.00309
333.15 K	0.0113	0.000567	6.22e-05	0.000894	0.00332
